Columns and labels:
wild-type HCT-116 cells = experiment: Cell proliferation (MTS), wild-type HCT-116; type: cell-based; settings: Homo sapiens, 240 h; wild-type HCT-116, 10 days with compound, MTS reading; read-out: IC50 HCT116 WT
Protocol: (§1) MTAP^-/- HCT-116 and wild-type HCT-116 cell strains were cultured in complete medium McCoy's 5A (Gibco, 16600082)/10% FBS (Gibco, 10099141C)/1% p/s (Gibco, 15140122) to evaluate the enhanced inhibitory effect of the compounds against the proliferation selectivity of MTAP^-/- HCT-116 cells. On day 0, MTAP^-/- HCT-116 cells or wild-type HCT-116 cells were added to a 96-well cell culture plate (Corning, 3599) at 100 cells/well, and the plate was incubated in an incubator at 37 °C with 5% CO2. The compound was diluted in a 3-fold gradient with DMSO (Sigma, D5879) (initial concentration: 20 µM, 3-fold dilution, 8 concentration points in total). On day 1, the compound was diluted to multiple concentration points, and the cells were treated separately and incubated in the incubator at 37 °C with 5% CO2 for another 10 days. On Day 11, 20 µL of MTS (CellTiter 96® AQueous One Solution Cell Proliferation Assay) (Promega, G3581) was added to each well. […] In the formula, Y represents the inhibition rate, X represents the logarithm of the compound concentration, Top represents the maximum response (the inhibition rate at the maximum compound concentration), Bottom represents the baseline response (the inhibition rate where the compound concentration was 0), Hill Slope represents the slope of the IC50 curve, and IC50 represents the half maximal inhibitory concentration. Table 1. IC50 (µM)

MTAP^-/- HCT-116 cells = experiment: Cell proliferation (MTS), MTAP-/- HCT-116; type: cell-based, human; settings: for Selectivity: HCT116 WT IC50 relative to HCT116 MTAP-/- IC50; for IC50: Homo sapiens, 240 h, MTAP-/- HCT-116, 10 days with compound, MTS reading, read-out: IC50 HCT116 MTAP-/-
Description: The colon cancer cell strain HCT-116 (purchased from Nanjing Cobioer) was co-transfected with the gene editing tool CRISPR/Cas9 and sgRNA, and the MTAP^-/- HCT-116 cell strain with biallelic inactivation of MTAP was obtained by assays such as Western Blotting and Sanger sequencing. The MTAP^-/- HCT-116 cell strain was used for compound selectivity screening and evaluation based on the synergistic mechanism of MTAP deletion and PRMT5, including a symmetric dimethylarginine (SDMA) level test, a cell proliferation test, and the like.
as §1, with “On” for “MTAP^-/- HCT-116 and wild-type HCT-116 cell strains were cultured in complete medium McCoy's 5A (Gibco, 16600082)/10% FBS (Gibco, 10099141C)/1% p/s (Gibco, 15140122) to evaluate the enhanced inhibitory effect of the compounds against the proliferation selectivity of MTAP^-/- HCT-116 cells. On”, “concentration.” for “concentration. Table 1. IC50 (µM)”

## CCN(C(=O)c1cc2c(cc1F)nc(N)c1cnn(C)c12)C1COc2cc(C#Cc3cnn(C)c3)ccc21 (stereo not drawn) [Compound 27, 4-amino-N-ethyl-7-fluoro-1-methyl-N-(6-((1-methyl-1H-pyrazol-4-yl)ethynyl)-2,3-dihydrobenzofuran-3-yl)-1H-pyrazolo[4,3-c]quinoline-8-carboxamide]
wild-type HCT-116 cells
  IC50: 0.185 µM
MTAP^-/- HCT-116 cells
  Selectivity: 58
  IC50: 0.0032 µM

## Cc1c(C#Cc2ccc3c(c2)OCC3N(C)C(=O)c2ccc3nc(N)c4cnn(C)c4c3c2)cnn1C (stereo not drawn) [Compound 29, 4-amino-N-(6-((1,5-dimethyl-1H-pyrazol-4-yl)ethynyl)-2,3-dihydrobenzofuran-3-yl)-N,1-dimethyl-1H-pyrazolo[4,3-c]quinoline-8-carboxamide]
wild-type HCT-116 cells
  IC50: 1.5 µM
MTAP^-/- HCT-116 cells
  Selectivity: 153
  IC50: 0.0098 µM

## Cc1c(C#Cc2ccc3c(c2)OC[C@H]3N(C)C(=O)c2ccc3nc(N)c4cnn(C)c4c3c2)cnn1C [Compound 29A, (S)-4-amino-N-(6-((1,5-dimethyl-1H-pyrazol-4-yl)ethynyl)-2,3-dihydrobenzofuran-3-yl)-N,1-dimethyl-1H-pyrazolo[4,3-c]quinoline-8-carboxamide]
wild-type HCT-116 cells
  IC50: 0.48 µM
MTAP^-/- HCT-116 cells
  Selectivity: 133
  IC50: 0.0036 µM

## CN(C(=O)c1ccc2nc(N)c3cnn(C)c3c2c1)[C@@H]1COc2cc(C#Cc3cnn(C(F)F)c3)ccc21 [Compound 30A, (S)-4-amino-N-(6-((1-(difluoromethyl)-1H-pyrazol-4-yl)ethynyl)-2,3-dihydrobenzofuran-3-yl)-N,1-dimethyl-1H-pyrazolo[4,3-c]quinoline-8-carboxamide]
wild-type HCT-116 cells
  IC50: 0.24 µM
MTAP^-/- HCT-116 cells
  Selectivity: 83
  IC50: 0.0029 µM

## CN(C(=O)c1ccc2nc(N)c3cnn(C)c3c2c1)C1COc2cc(C#Cc3cn(C)nc3C(F)(F)F)ccc21 (stereo not drawn) [Compound 31, 4-amino-N,1-dimethyl-N-(6-((1-methyl-3-(trifluoromethyl)-1H-pyrazol-4-yl)ethynyl)-2,3-dihydrobenzofuran-3-yl)-1H-pyrazolo[4,3-c]quinoline-8-carboxamide]
wild-type HCT-116 cells
  IC50: 1.46 µM
MTAP^-/- HCT-116 cells
  Selectivity: 102
  IC50: 0.0142 µM

## CN(C(=O)c1ccc2nc(N)c3cnn(C)c3c2c1)[C@@H]1COc2cc(C#Cc3cn(C)nc3C(F)(F)F)ccc21 [Compound 31A, (S)-4-amino-N,1-dimethyl-N-(6-((1-methyl-3-(trifluoromethyl)-1H-pyrazol-4-yl)ethynyl)-2,3-dihydrobenzofuran-3-yl)-1H-pyrazolo[4,3-c]quinoline-8-carboxamide]
wild-type HCT-116 cells
  IC50: 0.192 µM
MTAP^-/- HCT-116 cells
  Selectivity: 58
  IC50: 0.0033 µM

## CN(C(=O)c1cc2c(cc1F)nc(N)c1cnn(C)c12)C1COc2cc(C#Cc3cn(C)nc3C(F)(F)F)ccc21 (stereo not drawn) [Compound 32, 4-amino-7-fluoro-N,1-dimethyl-N-(6-((1-methyl-3-(trifluoromethyl)-1H-pyrazol-4-yl)ethynyl)-2,3-dihydrobenzofuran-3-yl)-1H-pyrazolo[4,3-c]quinoline-8-carboxamide]
wild-type HCT-116 cells
  IC50: 2.27 µM
MTAP^-/- HCT-116 cells
  Selectivity: 103
  IC50: 0.022 µM

## CN(C(=O)c1cc2c(cc1F)nc(N)c1cnn(C)c12)C1COc2nc(C#Cc3cnn(C)c3)ccc21 (stereo not drawn) [Compound 33, 4-amino-7-fluoro-N,1-dimethyl-N-(6-((1-methyl-1H-pyrazol-4-yl)ethynyl)-2,3-dihydrofuro[2,3-b]pyridin-3-yl)-1H-pyrazolo[4,3-c]quinoline-8-carboxamide]
wild-type HCT-116 cells
  IC50: 0.567 µM
MTAP^-/- HCT-116 cells
  Selectivity: 129
  IC50: 0.0044 µM

## CN(C(=O)c1ccc2nc(N)c3cnn(C)c3c2c1)C1COc2cc(C#Cc3cn(C)nc3Cl)ccc21 (stereo not drawn) [Compound 34, 4-amino-N-(6-((3-chloro-1-methyl-1H-pyrazol-4-yl)ethynyl)-2,3-dihydrobenzofuran-3-yl)-N,1-dimethyl-1H-pyrazolo[4,3-c]quinoline-8-carboxamide]
wild-type HCT-116 cells
  IC50: 1.14 µM
MTAP^-/- HCT-116 cells
  Selectivity: 150
  IC50: 0.0076 µM

## CN(C(=O)c1ccc2nc(N)c3cnn(C)c3c2c1)[C@@H]1COc2cc(C#Cc3cn(C)nc3Cl)ccc21 [Compound 34A, (S)-4-amino-N-(6-((3-chloro-1-methyl-1H-pyrazol-4-yl)ethynyl)-2,3-dihydrobenzofuran-3-yl)-N,1-dimethyl-1H-pyrazolo[4,3-c]quinoline-8-carboxamide]
wild-type HCT-116 cells
  IC50: 0.266 µM
MTAP^-/- HCT-116 cells
  Selectivity: 133
  IC50: 0.002 µM

## CN(C(=O)c1cc2c(cc1F)nc(N)c1cnn(C)c12)C1COc2cc(C#Cc3ccnn3C)ccc21 (stereo not drawn) [Compound 36, 4-amino-7-fluoro-N,1-dimethyl-N-(6-((1-methyl-1H-pyrazol-5-yl)ethynyl)-2,3-dihydrobenzofuran-3-yl)-1H-pyrazolo[4,3-c]quinoline-8-carboxamide]
wild-type HCT-116 cells
  IC50: 1.73 µM
MTAP^-/- HCT-116 cells
  Selectivity: 126
  IC50: 0.0137 µM

## Cc1cn(C)nc1C#Cc1ccc2c(c1)OCC2N(C)C(=O)c1cc2c(cc1F)nc(N)c1cnn(C)c12 (stereo not drawn) [Compound 37, 4-amino-N-(6-((1,4-dimethyl-1H-pyrazol-3-yl)ethynyl)-2,3-dihydrobenzofuran-3-yl)-7-fluoro-N,1-dimethyl-1H-pyrazolo[4,3-c]quinoline-8-carboxamide]
wild-type HCT-116 cells
  IC50: 2.04 µM
MTAP^-/- HCT-116 cells
  Selectivity: 93
  IC50: 0.022 µM

## CN(C(=O)c1cc2c(cc1F)nc(N)c1cnn(C)c12)C1COc2cc(C#Cc3cnn(C(F)F)c3)ccc21 (stereo not drawn) [Compound 41, 4-amino-N-(6-((1-(difluoromethyl)-1H-pyrazol-4-yl)ethynyl)-2,3-dihydrobenzofuran-3-yl)-7-fluoro-N,1-dimethyl-1H-pyrazolo[4,3-c]quinoline-8-carboxamide]
wild-type HCT-116 cells
  IC50: 1.78 µM
MTAP^-/- HCT-116 cells
  Selectivity: 129
  IC50: 0.0138 µM

## CN(C(=O)c1cc2c(cc1F)nc(N)c1cnn(C)c12)C1COc2cc(C#Cc3cnccc3C(F)F)ccc21 (stereo not drawn) [Compound 42, 4-amino-N-(6-((4-(difluoromethyl)pyridin-3-yl)ethynyl)-2,3-dihydrobenzofuran-3-yl)-7-fluoro-N,1-dimethyl-1H-pyrazolo[4,3-c]quinoline-8-carboxamide]
wild-type HCT-116 cells
  IC50: 0.785 µM
MTAP^-/- HCT-116 cells
  Selectivity: 42
  IC50: 0.0185 µM

## Cc1ccncc1C#Cc1ccc2c(c1)OCC2N(C)C(=O)c1cc2c(cc1F)nc(N)c1cnn(C)c12 (stereo not drawn) [Compound 44, 4-amino-7-fluoro-N,1-dimethyl-N-(6-((4-methylpyridin-3-yl)ethynyl)-2,3-dihydrobenzofuran-3-yl)-1H-pyrazolo[4,3-c]quinoline-8-carboxamide]
wild-type HCT-116 cells
  IC50: 0.736 µM
MTAP^-/- HCT-116 cells
  Selectivity: 67
  IC50: 0.011 µM

## Cc1ncccc1C#Cc1ccc2c(c1)OC[C@H]2N(C)C(=O)c1cc2c(cc1F)nc(N)c1cnn(C)c12 [Compound 45A, (S)-4-amino-7-fluoro-N,1-dimethyl-N-(6-((2-methylpyridin-3-yl)ethynyl)-2,3-dihydrobenzofuran-3-yl)-1H-pyrazolo[4,3-c]quinoline-8-carboxamide]
wild-type HCT-116 cells
  IC50: 0.213 µM
MTAP^-/- HCT-116 cells
  Selectivity: 53
  IC50: 0.004 µM

## CN1CCn2c(C#Cc3ccc4c(c3)OCC4N(C)C(=O)c3cc4c(cc3F)nc(N)c3cnn(C)c34)cnc2C1 (stereo not drawn) [Compound 46, 4-amino-7-fluoro-N,1-dimethyl-N-(6-((7-methyl-5,6,7,8-tetrahydroimidazo[1,2-a]pyrazin-3-yl)ethynyl)-2,3-dihydrobenzofuran-3-yl)-1H-pyrazolo[4,3-c]quinoline-8-carboxamide]
wild-type HCT-116 cells
  IC50: 0.467 µM
MTAP^-/- HCT-116 cells
  Selectivity: 156
  IC50: 0.003 µM

## Cc1cncc(C#Cc2ccc3c(c2)OC[C@H]3N(C)C(=O)c2cc3c(cc2F)nc(N)c2cnn(C)c23)c1 [Compound 47A, (S)-4-amino-7-fluoro-N,1-dimethyl-N-(6-((5-methylpyridin-3-yl)ethynyl)-2,3-dihydrobenzofuran-3-yl)-1H-pyrazolo[4,3-c]quinoline-8-carboxamide]
wild-type HCT-116 cells
  IC50: 0.598 µM
MTAP^-/- HCT-116 cells
  Selectivity: 115
  IC50: 0.0052 µM

— EP4755886A1 (Chengdu Chipscreen Pharmaceutical Ltd., priority 2023, dated 2025)
